Test results from patent publication US9289447B2, “Chemotherapeutic methods and compositions” (Gilead Biologics, Inc., priority 2009, dated 2016).

What was measured:
[1] = test system: LOX mRNA; assay: Quantitative PCR of LOX mRNA in siRNA-transfected MDA 231 cells; assay type: cell-based, human; settings: normalized to RPL19 mRNA, compared to non-targeting siRNA, FIG. 13
Experimental: (§1) MDA231 cells were seeded at 7,500 cells per well in 96-well plates (VWR International, West Chester, Pa.) in DMEM/FBS at 37° C., 5% CO2 and atmospheric oxygen. Cells were transfected at the time of seeding with […] RNA oligonucleotide, using the Dharmafect transfection reagent according to the manufacturer's instructions (Thermo Scientific, Lafayette, Colo.). Twenty-four hours later, the medium was replaced with medium containing various concentrations of erlotinib (LC Laboratories, Woburn, Mass.). After 5 days continuous exposure to drug, live cell number was determined as described in Example 1. […] In addition, levels of mRNAs encoding LOX and LOXL 2 were determined in the in the samples transfected with the LOX- and LOXL2-targeted siRNAs, and normalized to levels of RPL19 mRNA (which encodes a ribosomal protein).
(§2) For RNA analysis, mRNA was harvested using an RNEasy Mini kit (Qiagen, Valencia, Calif.) according to the manufacturer's instructions. A quantitative PCR reaction was assembled using the Brilliant II Core reagent kit according to the manufacturer's instructions (Agilent Technologies, Cedar Creek, Tex.). The quantitative PCR reaction cycle was as follows: 30 min at 50° C., 10 min at 95° C. and 40 cycles of 15 sec at 95° C. in combination with 1 min at 60° C.

[2] = test system: MDA231 cells; assay: Erlotinib sensitivity (live cell number) of siRNA-transfected MDA231 cells; assay type: cell-based, human; settings: for effect of siRNA transfection on sensitivity of the cells to erlotinib: MDA 231 cells grown on collagen, 5 days exposure to erlotinib; for effect of siRNA on sensitivity of the cells to erlotinib: MDA 231 cells grown on tissue culture plastic, separate experiments
Experimental: Cells from each of the four aforementioned lines were seeded at 3,000 cells per well in 96-well plates (VWR International, West Chester, Pa.), and cultured in Dulbecco's Modified Eagle's Medium supplemented with 10% fetal bovine serum (DMEM/FBS) at 37° C., 5% CO2 and atmospheric oxygen. Cells were cultured either in untreated wells or in collagen-coated wells, obtained or prepared as described above. Twenty-four hours later, medium was replaced with fresh medium containing various concentrations of erlotinib (LC Laboratories, Woburn, Mass.), cisplatin (Calbiochem, Gibbstown, N.J.) or methotrexate (Calbiochem, Gibbstown, N.J.). After 5 days' culture in the presence of the drug, live cell numbers were determined using the Cell Titer-Glo® luminescent cell viability assay (Promega, San Luis Obispo, Calif.) according to the manufacturer's instructions. For each cell line, three samples were assayed at each drug concentration.
MDA231 cells were seeded at 7,500 cells per well in 96-well plates (VWR International, West Chester, Pa.) in DMEM/FBS at 37° C., 5% CO2 and atmospheric oxygen. Cells were transfected at the time of seeding with […] RNA oligonucleotide, using the Dharmafect transfection reagent according to the manufacturer's instructions (Thermo Scientific, Lafayette, Colo.). Twenty-four hours later, the medium was replaced with medium containing various concentrations of erlotinib (LC Laboratories, Woburn, Mass.). After 5 days continuous exposure to drug, live cell number was determined as described in Example 1. For each condition, (LOX siRNA, LOXL2 siRNA, or non-targeting siRNA), three samples were assayed at each drug concentration. In addition, levels of mRNAs encoding LOX and LOXL 2 were determined in the in the samples transfected with the LOX- and LOXL2-targeted siRNAs, and normalized to levels of RPL19 mRNA (which encodes a ribosomal protein).

[3] = test system: MDA-MB-435 cells; assay: Chemotherapeutic sensitivity of MDA-MB-435 cells on extracellular matrices with anti-LOXL2 antibody; assay type: cell-based, human; settings: MDA-MB-435 cells plated on different extracellular matrices
Experimental: (§3) MDA-MB-435 cells (breast adenocarcinoma cell lines, ATCC, Manassas, Va.) are resuspended in medium containing 10-50 μg/mL anti-LOXL2 or control IgG antibody. Cells are seeded into 96 well tissue culture plates (10^3-10^4 cells in 100 μL per well) coated with poly-L-lysine, collagen I, collagen IV, fibronectin, or Matrigel™ (BD Biosciences, San Jose, Calif.). Alternatively, cells are plated in standard 96 well tissue culture plates (Costar, VWR International, West Chester, Pa.). Cells are incubated overnight at 37° C. in a 5% CO2 incubator. After sixteen to twenty hours, various concentrations of cisplatin (DDP), methotrexate, doxorubicin, docetaxel, gemcitabine, or 5-FU are added. Cells are incubated for 3-5 days at 37° C. in a 5% CO2 incubator, and the number of remaining live cells are quantified using the Cell Titer-Glo® luminescent cell viability assay (Promega, Madison, Wis.) according to the manufacturer's instructions. For each condition, samples are assayed in triplicate. The data are analyzed using GraphPad Prism software (or equivalent) to calculate IC50 values from a 4-parameter logistic equation.

[4] = test system: Panc-1 cells; assay: Chemotherapeutic sensitivity of Panc-1 cells on extracellular matrices with anti-LOXL2 antibody; assay type: cell-based; settings: Panc-1 cells plated on different extracellular matrices
Experimental: as §3, with “Panc-1 or Capan-1” for “MDA-MB-435”, “(pancreas” for “(breast”, “gemcitabine, docetaxel,” for “cisplatin (DDP), methotrexate,”, “5-FU” for “docetaxel, gemcitabine,”, “erlotinib” for “5-FU”

[5] = test system: Capan-1 cells; assay: Chemotherapeutic sensitivity of Capan-1 cells on extracellular matrices with anti-LOXL2 antibody; assay type: cell-based; settings: Capan-1 cells plated on different extracellular matrices
Experimental: as §3, with “Panc-1 or Capan-1” for “MDA-MB-435”, “(pancreas” for “(breast”, “gemcitabine, docetaxel,” for “cisplatin (DDP), methotrexate,”, “5-FU” for “docetaxel, gemcitabine,”, “erlotinib” for “5-FU”

[6] = test system: LOXL2 mRNA; assay: Quantitative PCR of LOXL2 mRNA in siRNA-transfected MDA 231 cells; assay type: cell-based, human; settings: normalized to RPL19 mRNA, compared to non-targeting siRNA, FIG. 13
Experimental: as §1, §2

[7] = target: T1, LOXL2 (Homo sapiens, UniProt Q9Y4K0); settings: as disclosed in US 2009/0053224; cited from earlier work
T1 sequence (Q9Y4K0 26-774): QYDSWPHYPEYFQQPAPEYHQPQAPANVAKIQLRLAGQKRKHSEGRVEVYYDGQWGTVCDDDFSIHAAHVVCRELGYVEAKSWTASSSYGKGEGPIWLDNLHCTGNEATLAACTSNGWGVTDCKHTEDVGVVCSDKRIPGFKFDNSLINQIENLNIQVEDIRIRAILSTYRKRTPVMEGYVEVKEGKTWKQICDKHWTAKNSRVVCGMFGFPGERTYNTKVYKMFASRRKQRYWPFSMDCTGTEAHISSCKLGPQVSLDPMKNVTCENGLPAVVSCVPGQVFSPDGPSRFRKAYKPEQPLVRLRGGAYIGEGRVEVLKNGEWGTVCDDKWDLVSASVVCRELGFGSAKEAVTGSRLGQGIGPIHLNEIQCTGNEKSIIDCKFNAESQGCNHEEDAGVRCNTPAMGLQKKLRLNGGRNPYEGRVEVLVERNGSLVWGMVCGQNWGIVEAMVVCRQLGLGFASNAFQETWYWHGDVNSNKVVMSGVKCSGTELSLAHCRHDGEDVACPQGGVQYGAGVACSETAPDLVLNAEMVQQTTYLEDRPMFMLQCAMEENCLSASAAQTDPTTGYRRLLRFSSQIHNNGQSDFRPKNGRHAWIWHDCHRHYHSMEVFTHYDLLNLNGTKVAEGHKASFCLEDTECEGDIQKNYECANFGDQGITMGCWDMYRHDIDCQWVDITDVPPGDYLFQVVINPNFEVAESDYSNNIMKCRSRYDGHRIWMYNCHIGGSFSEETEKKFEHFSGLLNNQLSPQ

[8] = target: T1, LOXL2; settings: as disclosed in US 2009/0053224; cited from earlier work; remark: listed apart in the source

Molecule: LOX-targeted siRNA: short RNA homologous to regions near the 3' end of LOX mRNA, from Invitrogen: ACAGGGAUUGAGUCCUGGCUGUUAU (listed as RNA, chemistry not given here)
- reduction of levels of LOX mRNA [1]: over two-fold
- effect of siRNA transfection on sensitivity of the cells to erlotinib ([2]; FIG. 14): greatly increased sensitivity
- effect of siRNA on sensitivity of the cells to erlotinib [2]: little or no effect

Molecule: O=c1[nH]cc(F)c(=O)[nH]1 [5-FU, 5-fluorouracil]
- sensitivity of cells to the chemotherapeutic in the presence of anti-LOXL2 antibodies [3]: increased sensitivity
- sensitivity of cells to the chemotherapeutic in the presence of anti-LOXL2 antibodies [4]: increased sensitivity
- sensitivity of cells to the chemotherapeutic in the presence of anti-LOXL2 antibodies [5]: increased sensitivity

Molecule: C#Cc1cccc(Nc2ncnc3cc(OCCOC)c(OCCOC)cc23)c1 [erlotinib, N-(3-ethynylphenyl)-6,7-bis(2-methoxyethoxy)quinazolin-4-amine]
- killing of cells by erlotinib ([2]; MDA 231 cells on collagen matrix, transfected with siRNA nonhomologous to LOX or LOXL2, FIG. 14): resistant to killing
- sensitivity of cells to the chemotherapeutic in the presence of anti-LOXL2 antibodies [4]: increased sensitivity
- sensitivity of cells to the chemotherapeutic in the presence of anti-LOXL2 antibodies [5]: increased sensitivity

Molecule: COc1cccc2c1C(=O)c1c(O)c3c(c(O)c1C2=O)C[C@@](O)(C(=O)CO)C[C@@H]3O[C@H]1C[C@H](N)[C@H](O)[C@H](C)O1 [doxorubicin]
- sensitivity of cells to the chemotherapeutic in the presence of anti-LOXL2 antibodies [3]: increased sensitivity
- sensitivity of cells to the chemotherapeutic in the presence of anti-LOXL2 antibodies [4]: increased sensitivity
- sensitivity of cells to the chemotherapeutic in the presence of anti-LOXL2 antibodies [5]: increased sensitivity

Molecule: Nc1ccn([C@@H]2O[C@H](CO)[C@@H](O)C2(F)F)c(=O)n1 [gemcitabine]
- sensitivity of cells to the chemotherapeutic in the presence of anti-LOXL2 antibodies [3]: increased sensitivity
- sensitivity of cells to the chemotherapeutic in the presence of anti-LOXL2 antibodies [4]: increased sensitivity
- sensitivity of cells to the chemotherapeutic in the presence of anti-LOXL2 antibodies [5]: increased sensitivity

Molecule: CC(=O)O[C@@]12CO[C@@H]1C[C@H](O)[C@@]1(C)C(=O)[C@H](O)C3=C(C)[C@@H](OC(=O)[C@H](O)[C@@H](NC(=O)OC(C)(C)C)c4ccccc4)C[C@@](O)([C@@H](OC(=O)c4ccccc4)[C@H]21)C3(C)C [docetaxel]
- sensitivity of cells to the chemotherapeutic in the presence of anti-LOXL2 antibodies [3]: increased sensitivity
- sensitivity of cells to the chemotherapeutic in the presence of anti-LOXL2 antibodies [4]: increased sensitivity
- sensitivity of cells to the chemotherapeutic in the presence of anti-LOXL2 antibodies [5]: increased sensitivity

Molecule: LOXL2-targeted siRNA: siRNA homologous to the second SRCR domain of LOXL2, from Invitrogen: UCAACGAAUUGUCAAAUUUGAACCC (listed as RNA, chemistry not given here)
- reduction of levels of LOXL2 mRNA [6]: five-fold
- effect of siRNA transfection on sensitivity of the cells to erlotinib ([2]; FIG. 14): greatly increased sensitivity
- effect of siRNA on sensitivity of the cells to erlotinib [2]: little or no effect

Molecule: CN(Cc1cnc2nc(N)nc(N)c2n1)c1ccc(C(=O)N[C@@H](CCC(=O)O)C(=O)O)cc1 [methotrexate]
- sensitivity of cells to the chemotherapeutic in the presence of anti-LOXL2 antibodies [3]: increased sensitivity

Molecule: N.N.[Cl][Pt][Cl] [cisplatin (DDP), cis-diaminedichloroplatinum(II)]
- sensitivity of cells to the chemotherapeutic in the presence of anti-LOXL2 antibodies [3]: increased sensitivity

B1: M20: monoclonal anti-LOXL2 antibody described in co-owned US 2009/0053224; variable regions SEQ ID NO: 12 and 13 (antibody, V domains shown)
VH: MEWSRVFIFLLSVTAGVHSQVQLQQSGAELVRPGTSVKVSCKASGYAFTYYLIEWVKQRPGQGLEWIGVINPGSGGTNYNEKFKGKATLTADKSSSTAYMQLSSLTSDDSAVYFCARNWMNFDYWGQGTTLTVSS
VL: MRCLAEFLGLLVLWIPGAIGDIVMTQAAPSVSVTPGESVSISCRSSKSLLHSNGNTYLYWFLQRPGQSPQFLIYRMSNLASGVPDRFSGSGSGTAFTLRISRVEAEDVGVYYCMQHLEYPYTFGGGTKLEIK
- binding site on LOXL2 [7]: binds to the SRCR3-4 domain of LOXL2
- extent of inhibition of LOXL2 enzymatic activity [8]: partial inhibitor
- mode of inhibition of LOXL2 enzymatic activity [8]: non-competitive inhibitor
